Series [1] addresses T1, Acetylcholinesterase (AChE) (Mus musculus, UniProt P21836).
T1 construct: A 10% (w/v) homogenate of brain was prepared; from tissue; host or cells: whole brain of adult Swiss albino mice; supernatant (100,000 g) of the 1% Triton X-100 treated homogenate
T1 sequence (P21836 32-614): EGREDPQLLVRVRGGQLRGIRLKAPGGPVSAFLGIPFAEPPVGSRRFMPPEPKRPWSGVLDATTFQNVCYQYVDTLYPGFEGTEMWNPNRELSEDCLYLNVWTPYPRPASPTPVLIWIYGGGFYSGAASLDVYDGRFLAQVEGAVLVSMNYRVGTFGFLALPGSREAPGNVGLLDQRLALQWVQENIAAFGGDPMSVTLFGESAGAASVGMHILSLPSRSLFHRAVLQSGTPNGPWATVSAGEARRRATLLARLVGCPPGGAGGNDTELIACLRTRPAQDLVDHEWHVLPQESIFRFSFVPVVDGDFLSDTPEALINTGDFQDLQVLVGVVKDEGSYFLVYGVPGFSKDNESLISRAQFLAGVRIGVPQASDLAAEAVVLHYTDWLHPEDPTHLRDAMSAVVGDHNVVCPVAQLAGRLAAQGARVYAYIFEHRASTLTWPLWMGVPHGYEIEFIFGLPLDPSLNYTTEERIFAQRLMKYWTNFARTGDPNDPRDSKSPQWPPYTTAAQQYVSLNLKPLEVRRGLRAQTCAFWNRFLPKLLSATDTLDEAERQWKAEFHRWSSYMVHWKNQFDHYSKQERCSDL
The experiment in a line: Acetylcholinesterase (AChE) assay in brain (in vitro), Ellman method. The class given is biochemical, Swiss albino mice. The settings on record: for inhibition at 10 µM / inhibition at 100 µM: read-out: % Inhibition of AChE enzyme; for AChE inhibitory activity compared to rivastigmine: comparison with rivastigmine. The protocol:
Acetylcholinesterase (AChE) Assay in Brain (In Vitro)
The mice were perfused under mild ether anesthesia through heart with ice cooled normal saline (0.9% NaCl) to remove blood-born cholinesterase from the brain. After perfusion the whole brain was taken out. A 10% (w/v) homogenate of brain was prepared first by homogenizing in an Ultra-Turrax T25 homogenizer at a speed of 9500 rpm thrice giving intervals for few seconds in between the runs, with sodium phosphate buffer (0.03 M, pH-7)).
The brain homogenate in volume of 500 μl was mixed with 1% Triton X-100 (1% w/v in 0.03M sodium phosphate buffer, pH-7) and centrifuged at 100,000 g at 4° C. in a Beckman Ultracentrifuge (LE 80, USA), using a fixed angle rotor (80 ti) for 60 min. Supernatant was collected and stored at 4° C. for acetylcholinesterase estimation.
The assay for each sample was run in triplicate and each experiment was performed twice.
The specific activity of AChE is expressed in μM/min/mg of protein.
The test substance (dissolved in ethanol) was incubated with enzyme source in different concentrations ([…]) for 30 min at 37° C. prior to obtain kinetic profile of AChE activity. […] The AChE inhibitory activity was calculated on the basis of % decrease in AChE activity from control values i.e. AChE activity without incubation with any standard or test drug.
The results are expressed as mean±S.E.M. Statistical analysis of passive avoidance values were performed by t-test. The IC50 value was calculated by non linear regression method using GraphPad Prism software.
(In general: In Ellman's method for cholinesterases, released thiocholine reacts with DTNB.)

The test system of another series is Swiss albino male mice. Put plainly: Gross behavioral study. The settings on record: for cholinergic symptoms / side effects: upto 24 hrs of drug administration; for cholinergic symptoms: 25 mg/kg; for side effects: 50 mg/kg.

The term IC50 denotes the midpoint of a concentration-inhibition curve. High values mean weaker potency in that assay, low ones greater potency in that assay. As a reminder, the inhibition is the change of the read-out against control, counted positive when it falls. With `Cc1ccccc1NC(=O)Oc1ccc2c(c1)N(Cc1ccccc1)CCC2` [Compound 8a, 1-benzyl-1,2,3,4-tetrahydroquinolin-7-yl 2-methylphenylcarbamate], in series [1], the half-inhibitory concentration (IC50) worked out at 13 ± 0.66 µM, the inhibition at 10 µM worked out at 44.1% and the inhibition at 100 µM was determined as 90.4%.

Take `O=C(Nc1ccccc1F)Oc1ccc2c(c1)NCCC2` [Compound 9b, 1,2,3,4-tetrahydroquinolin-7-yl 2-fluorophenylcarbamate]: in series [1], half-maximal inhibition (IC50) required 76.3 ± 0.9 µM, the inhibition at 10 µM was 10.5% and the inhibition at 100 µM was determined as 55.7%.

For `C#CCN1CCCc2ccc(OC(=O)Nc3c(C)cccc3C(C)C)cc21` [Compound 10d, 1-(prop-2-ynyl)-1,2,3,4-tetrahydroquinolin-7-yl 2-isopropyl-6-methylphenylcarbamate], in series [1], the IC50 is greater than 100 µM, the inhibition at 10 µM turned out to be 17.9% and the inhibition at 100 µM came out at 22.5%.

On to `Cc1ccc(NC(=O)Oc2ccc3c(c2)NCCC3)cc1` [Compound 9a, 1,2,3,4-tetrahydroquinolin-7-yl 4-methylphenylcarbamate], for which, in series [1], the IC50 was greater than 100 µM, the inhibition at 10 µM was determined as 0.01% and the inhibition at 100 µM worked out at 1.45%.

`COc1ccc(NC(=O)Oc2ccc3c(c2)N(Cc2ccccc2)CCC3)cc1` [Compound 8j, 1-benzyl-1,2,3,4-tetrahydroquinolin-7-yl 4-methoxyphenylcarbamate]: in series [1], the IC50 was greater than 100 µM, the inhibition at 10 µM is 1.41% and the inhibition at 100 µM turned out to be 3.59%.

Consider `COc1ccccc1NC(=O)Oc1ccc2c(c1)N(Cc1ccccc1)CCC2` [Compound 8i, 1-benzyl-1,2,3,4-tetrahydroquinolin-7-yl 2-methoxyphenylcarbamate], for which, in series [1], the concentration for half-maximal inhibition (IC50) was 298 ± 12.7 µM, the inhibition at 10 µM was 2.5% and the inhibition at 100 µM stood at 24.1%.

`O=C(Nc1ccc(F)cc1)Oc1ccc2c(c1)N(Cc1ccccc1)CCC2` [Compound 8d, 1-benzyl-1,2,3,4-tetrahydroquinolin-7-yl 4-fluorophenylcarbamate]: in series [1], the IC50 is greater than 100 µM, the inhibition at 10 µM turned out to be 5.23% and the inhibition at 100 µM is 15.5%.

For the molecule `C#CCN1CCCc2ccc(OC(=O)NCCCCCCC)cc21` [Compound 10b, 1-(prop-2-ynyl)-1,2,3,4-tetrahydroquinolin-7-yl heptylcarbamate], in series [1], the IC50 was 7.59 ± 0.62 µM, the inhibition at 10 µM worked out at 55.5% and the inhibition at 100 µM was found to be 77.2%. Also, in series [1] (fold lower than Rivastigmine), the “AChE inhibitory activity, fold lower compared to the drug Rivastigmine” value was found to be 7 fold. Moreover, in the series with Swiss albino male mice (125 mg/kg oral dose), the tolerability entry is listed as “Well tolerated” and the “cholinergic symptoms / side effects” value is listed as “No cholinergic symp-”.

The mortality is the percentage killed. Low values mean a weak lethal effect, high ones a strong lethal effect. Consider `CCN(C)C(=O)Oc1cccc([C@H](C)N(C)C)c1` [Rivastigmine], for which, in the series with Swiss albino male mice (1 mg/kg), the overall locomotor activity result was “locomotor activity was normal as control group” and the “peripheral cholinergic symptoms / tolerability” value is on record as 1 mg/kg: No peripheral cholinergic symptoms. Overall. For the same molecule, in the series with Swiss albino male mice (2 mg/kg), the “duration of symptom phase” value was 25 to 30 min, the “onset of symptoms after dosing” value was 2 mg/kg: 5-10 min after dosing animals become and the “recovery to normal after dosing” value is reported as “animals become normal one hr after”. For the same molecule, in the series on Swiss albino male mice (4 mg/kg), the “time gap between cholinergic side effect and death” value is “administration. There was no detectable time gap”. Also, in the series with Swiss albino male mice (4 mg/kg oral), the mortality stood at 100% and the “time to mortality after drug administration” value is on record as no more than 15 min. In addition, in the series on Swiss albino male mice (oral dose of 3 mg/kg), the peripheral side effects result was “some peripheral side effects”.

`C#CCN1CCCc2ccc(OC(=O)Nc3ccccc3Br)cc21` [Compound 10c, 1-(prop-2-ynyl)-1,2,3,4-tetrahydroquinolin-7-yl 2-bromophenylcarbamate]: in series [1], half-maximal inhibition (IC50) was put at 2.82 ± 0.04 µM, the “AChE inhibitory activity compared to rivastigmine” value is given as “almost equal”, the inhibition at 10 µM amounted to 71.7% and the inhibition at 100 µM was determined as 87.3%.

On to `O=C(Nc1ccccc1F)Oc1ccc2c(c1)N(Cc1ccccc1)CCC2` [Compound 8c, 1-benzyl-1,2,3,4-tetrahydroquinolin-7-yl 2-fluorophenylcarbamate], for which, in series [1], the IC50 was greater than 100 µM, the inhibition at 10 µM stood at 9.87% and the inhibition at 100 µM is 19.5%.

As for `C#CCN1CCCc2ccc(OC(=O)Nc3ccc(Cl)cc3)cc21` [Compound 10f, 1-(prop-2-ynyl)-1,2,3,4-tetrahydroquinolin-7-yl 4-chlorophenylcarbamate], in series [1], the IC50 worked out at 756 ± 208 µM, the inhibition at 10 µM was determined as 25.4% and the inhibition at 100 µM was 30.9%.

With `O=C(Nc1ccc(Cl)cc1)Oc1ccc2c(c1)NCCC2` [Compound 9d, 1,2,3,4-tetrahydroquinolin-7-yl 4-chlorophenylcarbamate], in series [1], the IC50 was found to be 126 ± 4.17 µM, the inhibition at 10 µM worked out at 1.86% and the inhibition at 100 µM was 38.9%.

In the case of `CN1CCCc2ccc(OC(=O)Nc3ccccc3F)cc21` [Compound 8l, 1-methyl-1,2,3,4-tetrahydroquinolin-7-yl 2-fluorophenylcarbamate], in series [1], half-maximal inhibition (IC50) was put at 55.9 ± 2.97 µM, the inhibition at 10 µM came to 32.8% and the inhibition at 100 µM turned out to be 58.8%.

Take `CCCCCCCNC(=O)Oc1ccc2c(c1)N(Cc1ccccc1)CCC2` [Compound 8h, 1-benzyl-1,2,3,4-tetrahydroquinolin-7-yl heptylcarbamate]: in series [1], the IC50 was greater than 100 µM, the inhibition at 10 µM came to 5.2% and the inhibition at 100 µM amounted to 10.1%.

Take `C#CCN1CCCc2ccc(OC(=O)Nc3ccccc3C)cc21` [Compound 10a, 1-(prop-2-ynyl)-1,2,3,4-tetrahydroquinolin-7-yl 2-methylphenylcarbamate]: in series [1], the IC50 was 13.3 ± 3.33 µM, the inhibition at 10 µM amounted to 52.5% and the inhibition at 100 µM is 60.8%.

For the molecule `O=C(Nc1ccc(Cl)cc1)Oc1ccc2c(c1)N(Cc1ccccc1)CCC2` [Compound 8f, 1-benzyl-1,2,3,4-tetrahydroquinolin-7-yl 4-chlorophenylcarbamate], in series [1], the IC50 is greater than 100 µM, the inhibition at 10 µM was 2.1% and the inhibition at 100 µM came out at 12.5%.

Take `O=C(Nc1ccc(F)cc1)Oc1ccc2c(c1)NCCC2` [Compound 9c, 1,2,3,4-tetrahydroquinolin-7-yl 4-fluorophenylcarbamate]: in series [1], the IC50 was 327 ± 15.9 µM, the inhibition at 10 µM was determined as 1.15% and the inhibition at 100 µM is 21.6%.

Regarding `C#CCN1CCCc2ccc(OC(=O)N(C)C)cc21` [Compound 10g, 1-(prop-2-ynyl)-1,2,3,4-tetrahydroquinolin-7-yl dimethylcarbamate], in series [1], half-maximal inhibition (IC50) required 0.68 ± 0.02 µM, the “AChE inhibitory activity compared to rivastigmine” value is “slightly better”, the inhibition at 10 µM was found to be 94.2% and the inhibition at 100 µM was determined as 96.5%.

Turning to `Cc1ccc(NC(=O)Oc2ccc3c(c2)N(Cc2ccccc2)CCC3)cc1` [Compound 8b, 1-benzyl-1,2,3,4-tetrahydroquinolin-7-yl 4-methylphenylcarbamate], in series [1], the concentration for half-maximal inhibition (IC50) worked out at 354 ± 21.5 µM, the inhibition at 10 µM was 5.41% and the inhibition at 100 µM came out at 25.1%.

As to `C#CCN1CCCc2ccc(OC(=O)Nc3ccccc3OC)cc21` [Compound 10e, 1-(prop-2-ynyl)-1,2,3,4-tetrahydroquinolin-7-yl 2-methoxyphenylcarbamate], in series [1], the IC50 is 0.92 ± 0.12 µM, the “AChE inhibitory activity compared to rivastigmine” value was “slightly better”, the inhibition at 10 µM was determined as 95.4% and the inhibition at 100 µM amounted to 96.3%. Also, in the series on Swiss albino male mice (125 mg/kg oral dose), the tolerability result is “Well tolerated” and the “cholinergic symptoms / side effects” value is “No cholinergic symp-”.

On to `COc1cc2c(cc1OC)C(=O)C(CC1CCN(Cc3ccccc3)CC1)C2` (centres unmarked) [Donepezil], for which the tolerability entry in the series with Swiss albino male mice (5 mg/kg dose) was “well tolerated”. For the same molecule, in the series on Swiss albino male mice, the cholinergic symptoms result is on record as “Moderate cholinergic”; the side effects result was “severe side effects were found initially and all”. In addition, in the series on Swiss albino male mice (listed as donepezil), the cholinergic symptoms entry is reported as “moderate cholinergic symptoms” and the side effects result is “severe side effects were found initially”.

In the case of `Nc1c2c(nc3ccccc13)CCCC2` [Tacrine], the tolerability result in the series with Swiss albino male mice (5 mg/kg dose) is “well tolerated at 5 mg/kg dose”.

Source of the values: patent US8946261B2, “Substituted 1, 2, 3, 4-tetrahydroquinolin-7-yl carbamates as acetylcholinesterase inhibitors for treatment of Alzheimer's disease” (priority 2011, dated 2015).
